For one data set, the system named is excessive aggression. As to the kind of experiment: double-blind multicenter clinical trial, olanzapine or placebo. The format is in vivo, human. To be noted: patients randomized to olanzapine or placebo. The source says:
A double-blind multicenter clinical trial was designed to assess the safety and efficacy of olanzapine. Patients were randomized to olanzapine or placebo.

Data set [1] can be described thus: detection of radiolabelled olanzapine in saliva. The format is in vivo. The procedure: For example, in the treatment of adult humans, dosages of from 5 to 20 mg per day may be used. A once a day dosage is normally sufficient, although divided doses may be administered. For treatment of extreme aggression, a dose range of from 5 to 20 mg per day is suitable.
The subject of the next data set is 5-HT1C receptor. Description: pharmacological studies, 5-HT1C receptor activity.
Data set [2] relates to muscarinic cholinergic receptor. Description: pharmacological studies, muscarinic cholinergic receptor activity.

SMILES strings stand for the structures.

Take `Cc1cc2c(s1)Nc1ccccc1N=C2N1CCN(C)CC1` [olanzapine, 2-methyl-4-(4-methyl-1-piperazinyl)-10H-thieno[2,3-b][1,5]benzodiazepine]: the “efficacy in treatment of excessive aggression” value in the data set on excessive aggression is “can be useful for the treatment of excessive aggression”. In addition, the detection in saliva result in data set [1] is listed as “can be detected in the saliva”. The “activity at the 5-HT1C receptor” value in the data set on 5-HT1C receptor is on record as “active”. In addition, in data set [2], the “muscarinic cholinergic receptor activity” value is listed as “has muscarinic cholinergic receptor activity”.

The values above are taken from patent US6071902A, “Method for treating excessive aggression” (Eli Lilly and Company, priority 1997, dated 2000).
